Data from patent publication US12134788B2, “Engineered prephenate dehydrogenases and arogenate dehydrogenases and methods of using the same” (Wisconsin Alumni Research Foundation, priority 2017, dated 2024).

Tests used:
[1] = target: T1, Medicago truncatula MtncADH variant D220C, SEQ ID NO: 10 (Medicago truncatula, UniProt A0A217FAR3, D220C); assay: ADH and PDH assay: steady-state kinetics and Tyr inhibition, MtncADH D220C; assay type: biochemical
T1 construct: D220C by site-directed mutagenesis
T1 sequence (A0A217FAR3 1-266 D220C): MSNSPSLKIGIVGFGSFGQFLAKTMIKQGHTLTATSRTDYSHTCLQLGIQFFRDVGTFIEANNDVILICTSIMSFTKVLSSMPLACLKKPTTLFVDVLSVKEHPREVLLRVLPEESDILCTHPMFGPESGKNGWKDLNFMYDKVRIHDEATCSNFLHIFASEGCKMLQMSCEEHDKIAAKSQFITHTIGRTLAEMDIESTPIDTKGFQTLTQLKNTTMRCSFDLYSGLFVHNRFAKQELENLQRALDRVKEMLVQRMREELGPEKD
Protocol: (§1) Kinetic parameters of purified recombinant proteins were determined from assays conducted at varying arogenate (19.5 μM-5 mM) and prephenate concentration (23.4 μM-6 mM). Standard assay conditions were 25 mM HEPES pH 7.6, 50 mM KCl and 10% (v/v) ethylene glycol, and 0.5 mM NADP^+ with varied substrate, concentrations. Reactions were initiated by addition of enzyme and incubated at 37° C. monitored every 10-15 seconds at […] using a microplate reader (Tecan Genios). Kinetic parameters were determined by fitting initial velocity data to the Michaelis-Menten equation using the Origin software (OriginLab).
(§2) Arogenate was prepared by enzymatic conversion of prephenate (Sigma-Aldrich) as previously reported^56. For Tyr inhibition assays, Tyr was dissolved in a slightly basic solution (0.025 N NaOH) due to solubility issues, thus the concentration of lysis buffer was increased to 500 mM HEPES final concentration to buffer against the changes by addition of Tyr in the reaction. Reactions containing varying amounts of Tyr (10 μM-8 mM) with 0.5 mM NADP^+ and either 1 mM arogenate or 0.8 mM prephenate were monitored as above.

[2] = target: T2, MtPDH (MtPDH1; Mt3g071980), Medicago truncatula prephenate dehydrogenase, wild type (Medicago truncatula, UniProt A0A0A0R205); assay: ADH and PDH assay: steady-state kinetics and Tyr inhibition, MtPDH wild type; assay type: biochemical
T2 sequence (A0A0A0R205 1-268): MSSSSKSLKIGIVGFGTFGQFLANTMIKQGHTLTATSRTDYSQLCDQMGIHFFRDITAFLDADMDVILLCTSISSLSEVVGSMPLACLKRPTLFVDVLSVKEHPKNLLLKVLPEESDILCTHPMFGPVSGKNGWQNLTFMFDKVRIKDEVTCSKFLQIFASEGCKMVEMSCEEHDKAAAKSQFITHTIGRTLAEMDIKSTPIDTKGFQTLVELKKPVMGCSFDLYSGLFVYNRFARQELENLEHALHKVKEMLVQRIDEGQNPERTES
Protocol: as §1
as §2, with “Reactions containing varying amounts of Tyr (10 μM-8 mM) with 0.5 mM NADP^+ and either 1 mM arogenate or 0.8 mM prephenate were monitored as above.” left out

[3] = target: T3, GmPDH1 (Gm18g02650), soybean (Glycine max) prephenate dehydrogenase, wild type (Glycine max, UniProt I1MYY4); assay: ADH and PDH assay: steady-state kinetics and Tyr inhibition, GmPDH1 wild type; assay type: biochemical
T3 construct: homodimer
T3 sequence (I1MYY4 1-271): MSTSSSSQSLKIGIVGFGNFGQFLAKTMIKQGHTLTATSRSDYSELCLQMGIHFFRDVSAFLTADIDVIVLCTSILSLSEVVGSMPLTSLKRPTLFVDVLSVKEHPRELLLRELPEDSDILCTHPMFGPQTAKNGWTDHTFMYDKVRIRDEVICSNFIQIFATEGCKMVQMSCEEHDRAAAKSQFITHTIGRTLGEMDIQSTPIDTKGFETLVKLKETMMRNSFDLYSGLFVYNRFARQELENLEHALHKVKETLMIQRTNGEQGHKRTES
Protocol: as §1
as §2, with “Reactions containing varying amounts of Tyr (10 μM-8 mM) with 0.5 mM NADP^+ and either 1 mM arogenate or 0.8 mM prephenate were monitored as above.” left out

[4] = target: T4, Solanum lycopersicum SolyncADH variant D224N (Solanum lycopersicum, UniProt K4C5K7, D224N); assay: ADH and PDH assay: steady-state kinetics and Tyr inhibition, SolyncADH D224N; assay type: biochemical, Solanum lycopersicum (tomato); details: versus wild-type; ADH activity, 0-8 mM Tyr
T4 construct: D224N by site-directed mutagenesis
T4 sequence (K4C5K7 1-272 D224N): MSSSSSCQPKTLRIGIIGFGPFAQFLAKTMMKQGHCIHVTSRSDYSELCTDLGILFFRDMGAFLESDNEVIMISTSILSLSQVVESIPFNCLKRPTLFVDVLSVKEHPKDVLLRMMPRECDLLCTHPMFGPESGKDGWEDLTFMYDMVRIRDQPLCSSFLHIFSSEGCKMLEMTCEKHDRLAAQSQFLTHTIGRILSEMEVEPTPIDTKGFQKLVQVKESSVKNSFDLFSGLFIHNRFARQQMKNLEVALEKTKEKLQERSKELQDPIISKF
Protocol: as §1, §2

N[C@@H](Cc1ccc(O)cc1)C(=O)O [Tyr, L-Tyrosine]
IC50 [1]: 7.7 ± 1.5 mM
sensitivity to Tyr inhibition ([1]; versus wild-type, ADH activity, 0-8 mM Tyr): significantly less sensitive to Tyr inhibition
IC50 [2]: 32.1 ± 10 mM
feedback inhibition by Tyr ([2]; up to 8 mM Tyr in assays): insensitive to feedback inhibition by Tyr
IC50 [3]: 31.3 ± 9.3 mM
feedback inhibition by Tyr ([3]; up to 8 mM Tyr in assays): insensitive to feedback inhibition by Tyr
sensitivity to Tyr inhibition [4]: significantly less sensitive to Tyr inhibition
